PubChem BioAssay AID2060909 (Molecular Pharmacology Branch, DTP, NCI, 2025)

System: 362531-283-R-J2-PDC complex spheroid viability
Experiment: Anticancer human tumor 362531-283-R-J2-PDC patient-derived colon adenocarcinoma cell line growth inhibition [RAS]
Conditions: for IC50: curve of first compound; for viability, T/C: stronger effect = lower value
In short: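 Agents were tested in combination matrices in half-log decrements from a top concentration at or near clinical Cmax (10 microM if undetermined). Targets were multi-cell spheroids of tumour lines plus HUVEC and MSC stromal cells.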
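Further: spheroids exposed to the agents for 7 days before readout.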
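Wherever viability, T/C is given: luminescence viability as percent of DMSO vehicle control wells.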

O=C(c1ccc(F)c(F)c1Nc1ccc(I)cc1F)N1CC(O)([C@@H]2CCCCN2)C1 + CCn1c(-c2cccnc2C(C)OC)c2c3cc(ccc31)N1CCOC(CC(NC(=O)C(C(C)C)N(C)C(=O)C3(F)CCN(C(=O)C#CC(C)(C)N(C)C)CC3)C(=O)N3CCCC(N3)C(=O)OCC(C)(C)C2)C1
IC50 (second compound 0.000949 µM): 628 nM | IC50 (second compound 0.003 µM): 537 nM | IC50 (second compound 0.00949 µM): 573 nM | IC50 (second compound 0.03 µM): 684 nM | IC50 (second compound 0.0949 µM): 580 nM | IC50 (second compound 0.3 µM): 604 nM | viability, T/C (second compound 0.000949 µM, first compound 0.00316 µM): 94% | viability, T/C (second compound 0.000949 µM, first compound 0.01 µM): 94.9% | viability, T/C (second compound 0.000949 µM, first compound 0.0316 µM): 101% | viability, T/C (second compound 0.000949 µM, first compound 0.1 µM): 91.3% | viability, T/C (second compound 0.000949 µM, first compound 0.316 µM): 88% | viability, T/C (second compound 0.000949 µM, first compound 1 µM): 24.4% | viability, T/C (second compound 0.003 µM, first compound 0.00316 µM): 102% | viability, T/C (second compound 0.003 µM, first compound 0.01 µM): 108% | viability, T/C (second compound 0.003 µM, first compound 0.0316 µM): 107% | viability, T/C (second compound 0.003 µM, first compound 0.1 µM): 83.2% | viability, T/C (second compound 0.003 µM, first compound 0.316 µM): 81.8% | viability, T/C (second compound 0.003 µM, first compound 1 µM): 18.4% | viability, T/C (second compound 0.00949 µM, first compound 0.00316 µM): 86% | viability, T/C (second compound 0.00949 µM, first compound 0.01 µM): 108% | viability, T/C (second compound 0.00949 µM, first compound 0.0316 µM): 102% | viability, T/C (second compound 0.00949 µM, first compound 0.1 µM): 88.8% | viability, T/C (second compound 0.00949 µM, first compound 0.316 µM): 82.1% | viability, T/C (second compound 0.00949 µM, first compound 1 µM): 20.9% | viability, T/C (second compound 0.03 µM, first compound 0.00316 µM): 97.7% | viability, T/C (second compound 0.03 µM, first compound 0.01 µM): 98.6% | viability, T/C (second compound 0.03 µM, first compound 0.0316 µM): 104% | viability, T/C (second compound 0.03 µM, first compound 0.1 µM): 91.2% | viability, T/C (second compound 0.03 µM, first compound 0.316 µM): 99% | viability, T/C (second compound 0.03 µM, first compound 1 µM): 26.4% | viability, T/C (second compound 0.0949 µM, first compound 0.00316 µM): 105% | viability, T/C (second compound 0.0949 µM, first compound 0.01 µM): 103% | viability, T/C (second compound 0.0949 µM, first compound 0.0316 µM): 103% | viability, T/C (second compound 0.0949 µM, first compound 0.1 µM): 81.8% | viability, T/C (second compound 0.0949 µM, first compound 0.316 µM): 86.8% | viability, T/C (second compound 0.0949 µM, first compound 1 µM): 22.3% | viability, T/C (second compound 0.3 µM, first compound 0.00316 µM): 89% | viability, T/C (second compound 0.3 µM, first compound 0.01 µM): 90.8% | viability, T/C (second compound 0.3 µM, first compound 0.0316 µM): 99% | viability, T/C (second compound 0.3 µM, first compound 0.1 µM): 82% | viability, T/C (second compound 0.3 µM, first compound 0.316 µM): 88.2% | viability, T/C (second compound 0.3 µM, first compound 1 µM): 20.3%

CC(C)NCC(C(=O)N1CCN(c2ncnc3c2C(C)CC3O)CC1)c1ccc(Cl)cc1 (centres undefined) + C=CC(=O)N1CCN(c2nc(OCC3CCCN3C)nc3c(F)c(-c4nc(N)cc(C)c4C(F)(F)F)c(Cl)cc23)C(C)C1
IC50 (second compound 0.00316 µM): > 10000 nM | IC50 (second compound 0.01 µM): > 10000 nM | IC50 (second compound 0.0316 µM): > 10000 nM | IC50 (second compound 0.1 µM): > 10000 nM | IC50 (second compound 0.316 µM): > 10000 nM | IC50 (second compound 1 µM): > 10000 nM | viability, T/C (second compound 0.00316 µM, first compound 0.0316 µM): 109% | viability, T/C (second compound 0.00316 µM, first compound 0.1 µM): 98.7% | viability, T/C (second compound 0.00316 µM, first compound 0.316 µM): 103% | viability, T/C (second compound 0.00316 µM, first compound 1 µM): 91.2% | viability, T/C (second compound 0.00316 µM, first compound 3.16 µM): 97% | viability, T/C (second compound 0.00316 µM, first compound 10 µM): 92.5% | viability, T/C (second compound 0.01 µM, first compound 0.0316 µM): 93.7% | viability, T/C (second compound 0.01 µM, first compound 0.1 µM): 101% | viability, T/C (second compound 0.01 µM, first compound 0.316 µM): 90.7% | viability, T/C (second compound 0.01 µM, first compound 1 µM): 94.6% | viability, T/C (second compound 0.01 µM, first compound 3.16 µM): 106% | viability, T/C (second compound 0.01 µM, first compound 10 µM): 107% | viability, T/C (second compound 0.0316 µM, first compound 0.0316 µM): 90.5% | viability, T/C (second compound 0.0316 µM, first compound 0.1 µM): 104% | viability, T/C (second compound 0.0316 µM, first compound 0.316 µM): 101% | viability, T/C (second compound 0.0316 µM, first compound 1 µM): 102% | viability, T/C (second compound 0.0316 µM, first compound 3.16 µM): 103% | viability, T/C (second compound 0.0316 µM, first compound 10 µM): 94.9% | viability, T/C (second compound 0.1 µM, first compound 0.0316 µM): 94.2% | viability, T/C (second compound 0.1 µM, first compound 0.1 µM): 94.5% | viability, T/C (second compound 0.1 µM, first compound 0.316 µM): 105% | viability, T/C (second compound 0.1 µM, first compound 1 µM): 96.8% | viability, T/C (second compound 0.1 µM, first compound 3.16 µM): 111% | viability, T/C (second compound 0.1 µM, first compound 10 µM): 102% | viability, T/C (second compound 0.316 µM, first compound 0.0316 µM): 95.4% | viability, T/C (second compound 0.316 µM, first compound 0.1 µM): 105% | viability, T/C (second compound 0.316 µM, first compound 0.316 µM): 101% | viability, T/C (second compound 0.316 µM, first compound 1 µM): 96.8% | viability, T/C (second compound 0.316 µM, first compound 3.16 µM): 111% | viability, T/C (second compound 0.316 µM, first compound 10 µM): 92.5% | viability, T/C (second compound 1 µM, first compound 0.0316 µM): 98.6% | viability, T/C (second compound 1 µM, first compound 0.1 µM): 101% | viability, T/C (second compound 1 µM, first compound 0.316 µM): 95.7% | viability, T/C (second compound 1 µM, first compound 1 µM): 102% | viability, T/C (second compound 1 µM, first compound 3.16 µM): 104% | viability, T/C (second compound 1 µM, first compound 10 µM): 86.8%
